According to patent US8288375B2, “Fungicidal bicyclic pyrazoles” (E.I. du Pont de Nemours and Company, priority 2007, dated 2012):
Marks after values point to notes of the source that are not given here.

How the values were obtained:
Format in all cases: in vivo
[1] = system: Erysiphe graminis f. sp. tritici; assay: Test A: wheat powdery mildew, test suspension sprayed on wheat seedlings, disease rating; settings: 200 ppm test suspension, 100 = 100% disease control, 0 = no control
[2] = system: Colletotrichum orbiculare; assay: Test F: cucumber Colletotrichum anthracnose, test suspension sprayed on cucumber seedlings, disease rating; settings: for Test F disease control rating: 200 ppm test suspension
Pythium aphanidermatum = assay: Test L: bluegrass pythium blight, test suspension sprayed on bluegrass seedlings, disease rating;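 note: 200 ppm unless marked * meaning 40 ppm or ** meaning 10 ppm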
Rhizoctonia oryzae = assay: Test I: turf brown patch, test suspension sprayed on creeping bent grass seedlings, disease rating; settings: 200 ppm test suspension
[3] = system: Puccinia recondite f sp. tritici; assay: Test B: wheat leaf rust, test suspension sprayed on wheat seedlings, disease rating;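 note: 200 ppm unless marked * meaning 40 ppm or ** meaning 10 ppm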
Alternaria solani = assay: Test G: tomato early blight, test suspension sprayed on seedlings, disease rating; settings: for Test G disease control rating: 40 ppm test suspension (*);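 for all read-outs here: 200 ppm unless marked * meaning 40 ppm or ** meaning 10 ppm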
Septoria nodorum = assay: Test D: wheat glume blotch, test suspension sprayed on wheat seedlings, disease rating; settings: 200 ppm test suspension
Phytophthora infestans = assay: whole plant or invertebrate
Botrytis cinerea = assay: Test H: tomato Botrytis, test suspension sprayed on tomato seedlings, disease rating; settings: 200 ppm test suspension
Fusarium graminearum = assay: whole plant or invertebrate
Septoria tritici = assay: Test E: wheat leaf blotch, test suspension sprayed on wheat seedlings, disease rating; settings: for Test E disease control rating: 40 ppm test suspension (*);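 for all read-outs here: 200 ppm unless marked * meaning 40 ppm or ** meaning 10 ppm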
Plasmopara viticola = assay: Test K: grape downy mildew, grape seedlings inoculated and then sprayed, disease rating; settings: 200 ppm test suspension

Row | Compound | Test A disease control rating [1] [%] | Test F disease control rating [2] [%] | Test L disease control rating (Pythium aphanidermatum; 40 ppm test suspension (*)) | Test I disease control rating (Rhizoctonia oryzae) [%] | Test B disease control rating ([3]; 40 ppm test suspension (*)) | Test G disease control rating (Alternaria solani) | Test D disease control rating (Septoria nodorum) [%] | Test J disease control rating (Phytophthora infestans; 40 ppm test suspension (*)) | Test H disease control rating (Botrytis cinerea) [%] | Test C disease control rating (Fusarium graminearum; 40 ppm test suspension (*)) | Test E disease control rating (Septoria tritici) | Test K disease control rating (Plasmopara viticola) [%] | Test L disease control rating (Pythium aphanidermatum; 200 ppm test suspension) [%] | Test B disease control rating ([3]; 200 ppm test suspension) [%] | Test J disease control rating (Phytophthora infestans; 200 ppm test suspension) [%] | Test C disease control rating (Fusarium graminearum; 200 ppm test suspension) [%] | other results
1 | CC(=O)N1CCCc2c(-c3ccnc(NC4CC4)n3)c(-c3ccc(F)cc3)nn21 [Compound 134, 1-[3-[2-(cyclopropylamino)-4-pyrimidinyl]-2-(4-fluorophenyl)-5,6-dihydropyrazolo[1,5-b]pyridazin-7(4H)-yl]ethanone] | – | – | – | – | – | – | – | – | – | – | – | – | – | – | – | – | pest or weed control at 200 ppm ([1]; Blumeria graminis, 192 h): 91%; pest or weed control at 40 ppm ([2]; Colletotrichum orbiculare, 144 h, 40 ppm test suspension (*)): 99%; pest or weed control at 40 ppm (Pythium aphanidermatum; Pythium aphanidermatum, 120 h, 40 ppm test suspension (*)): 100%; pest or weed control at 200 ppm (Rhizoctonia oryzae; Waitea circinata, in Agrostis stolonifera, 120 h): 24%; pest or weed control at 40 ppm ([3]; Puccinia, 192 h, 40 ppm test suspension (*)): 85%; pest or weed control at 10 ppm (Alternaria solani; Alternaria solani, 168 h, 10 ppm test suspension (**)): 98%; pest or weed control at 200 ppm (Septoria nodorum; Parastagonospora nodorum, 216 h): 96%; pest or weed control at 10 ppm (Phytophthora infestans; Phytophthora infestans, in Solanum lycopersicum, 120 h, read-out: Test J disease control rating): 90%; pest or weed control at 200 ppm (Botrytis cinerea; Botrytis cinerea, 120 h): 53%; pest or weed control at 40 ppm (Fusarium graminearum; Fusarium graminearum, in Triticum aestivum, 192 h, read-out: Test C disease control rating): 84%; pest or weed control at 10 ppm (Septoria tritici; Zymoseptoria tritici, 504 h, 10 ppm test suspension (**)): 77%
2 | CC(C)Nc1nccc(-c2c(-c3ccc(F)cc3)nn3c2CCCN3)n1 [Compound 136] | 0 | 0 | 100* % | 0 | 92* % | 99* % | 97 | 57* % | 41 | 77* % | 28* % | – | – | – | – | – | –
3 | C=CCN1CNCc2c(-c3ccnc(NC4CC4)n3)c(-c3ccc(F)cc3)nn21 [Compound 137] | 86 | 0 | 99* % | 0 | 0* % | 99* % | 92 | 53* % | 0 | 69* % | 73* % | – | – | – | – | – | –
4 | CCC(C)CNc1nccc(-c2c(-c3ccc(F)cc3)nn3c2CCCC3)n1 (stereo not shown) [compound 6] | 0 | 0 | – | 0 | – | – | 0 | – | 0 | – | – | 0 | 0 | 73 | 0 | 100 | –
5 | Nc1nccc(-c2c(-c3ccc(F)cc3)nn3c2CCCC3)n1 [compound 10] | 90 | 0 | – | 0 | – | – | 87 | – | 63 | – | – | 0 | 42 | 99 | 64 | 99 | –
6 | CNc1nccc(-c2c(-c3ccc(F)cc3)nn3c2CCCC3)n1 [compound 13] | 98 | 31 | – | 77 | – | – | 97 | – | 29 | – | – | 0 | 100 | 99 | 97 | 100 | –
7 | C=CCNc1nccc(-c2c(-c3ccc(F)cc3)nn3c2CCCC3)n1 [compound 15] | 86 | 17 | – | 0 | – | – | 98 | – | 92 | – | – | 0 | 100 | 99 | 97 | 100 | –
8 | NCCNc1nccc(-c2c(-c3ccc(F)cc3)nn3c2CCCC3)n1 [compound 16] | 20 | 0 | – | 0 | – | – | 0 | – | 19 | – | – | 0 | 70 | 99 | 91 | 99 | –
9 | C#CCNc1nccc(-c2c(-c3ccc(F)cc3)nn3c2CCCC3)n1 [compound 17] | 64 | 77 | – | 0 | – | – | 98 | – | 97 | – | – | 86 | 100 | 99 | 100 | 100 | –
10 | CN(N)c1nccc(-c2c(-c3ccc(F)cc3)nn3c2CCCC3)n1 [compound 70] | 83 | 91 | 98* % | 9 | 0* % | 46* % | 90 | 53* % | 29 | 0* % | 84* % | – | – | – | – | – | –
11 | CC(CO)Nc1nccc(-c2c(-c3ccc(F)cc3)nn3c2CCCC3)n1.Cl (stereo not shown) [compound 72] | 0 | 0 | 100* % | 0 | 94* % | 98* % | 82 | 99* % | 77 | 0* % | 47* % | – | – | – | – | – | –
12 | CCCC(CO)Nc1nccc(-c2c(-c3ccc(F)cc3)nn3c2CCCC3)n1 (stereo not shown) [compound 73] | 0 | 0 | 98* % | 0 | 85* % | 0* % | 78 | 17* % | 0 | 0* % | 84* % | – | – | – | – | – | –
13 | CC(C)C(CO)Nc1nccc(-c2c(-c3ccc(F)cc3)nn3c2CCCC3)n1 (stereo not shown) [compound 74] | 20 | 0 | 93* % | 0 | 91* % | 0* % | 60 | 0* % | 0 | 10* % | 86* % | – | – | – | – | – | –
14 | Fc1ccc(-c2nn3c(c2-c2ccnc(NOCC4CCC4)n2)CCCC3)cc1 [compound 75] | 31 | 0 | 0* % | 0 | 0* % | 0* % | 0 | 0* % | 0 | 0* % | 92* % | – | – | – | – | – | –
15 | COCC(C)Nc1nccc(-c2c(-c3ccc(OC)cc3)nn3c2CCC3)n1 (stereo not shown) [compound 86] | 0 | 0 | – | 0 | – | – | 51 | – | 0 | – | – | 0 | 99 | – | 94 | 0 | –
16 | CCC(C)Nc1nccc(-c2c(-c3ccc(F)cc3F)nn3c2CCC3)n1 (stereo not shown) [compound 87] | 0 | 0 | – | 0 | – | – | 78 | – | 0 | – | – | 0 | 99 | – | 94 | 99 | –
17 | COCC(C)Nc1nccc(-c2c(-c3ccc(F)cc3F)nn3c2CCC3)n1 (stereo not shown) [compound 88] | 0 | 0 | – | 0 | – | – | 60 | – | 21 | – | – | 0 | 99 | – | 100 | 100 | –
18 | COCC(C)Nc1nccc(-c2c(-c3ccc(C)cc3)nn3c2CCC3)n1 (stereo not shown) [compound 89] | 21 | 0 | – | 0 | – | – | 60 | – | 8 | – | – | 0 | 99 | – | 0 | 100 | –
